Measurements published in patent US20160257697A1, “THIOPHENE-SUBSTITUTED TETRACYCLIC COMPOUNDS AND METHODS OFUSE THEREOF FOR THE TREATMENT OF VIRAL DISEASES” (priority 2013, published 2016).
pIC50: −log10 of the molar value. Read-outs that look alike come from different tables or passages of the source.

Experiments:
Experiment in all cases: microbe, parasite or virus in culture
Assay type in all cases: cell-based, Hepatitis C virus (HCV)
HCV replicon 1A = settings: HCV replicon 1A, Replicon Assay A
In short: (§1)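 Replicon cells were seeded at 2000 cells/well with test compound in 0.5% DMSO and 5% FBS, then harvested on day 3. Replicon RNA was measured by multiplex TaqMan real-time RT-PCR, using cyclophilin RNA as the endogenous control and quantified against standard curves of HCV replicon total RNA.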

HCV replicon 1AY93H = settings: read-out: 1A Y93H IC50; HCV replicon 1A Y93H; Replicon Assay A
In short: as §1

HCV replicon 2B = settings: Replicon Assay A
In short: as §1

HCV replicon 1B = settings: Hepatitis C virus, HCV replicon 1B; Replicon Assay B
HCV replicon 1AQ30D = settings: Hepatitis C virus, read-out: 1A Q30D IC50, HCV replicon 1A Q30D; Replicon Assay B

Row | Compound | pIC50 (HCV replicon 1A) | pIC50 (HCV replicon 1AY93H) | pIC50 (HCV replicon 2B; read-out: 2B IC50, HCV replicon 2B) | pIC50 (HCV replicon 1B) | pIC50 (HCV replicon 1AQ30D) | pIC50 (HCV replicon 1A; Hepatitis C virus) | pIC50 (HCV replicon 2B; Hepatitis C virus, read-out: 2B IC50, HCV replicon 2B)
1 | COC(=O)N[C@H](C(=O)N1C[C@H](F)C[C@H]1c1ncc(-c2ccc3c(c2)cc2n3C(c3cc4ccccc4s3)Oc3cc(-c4cnc([C@@H]5CCCN5C(=O)[C@@H](NC(=O)OC)C5CCOCC5)[nH]4)ccc3-2)[nH]1)C(C)C (single isomer, unassigned) [Compound 625] | 11.72 | 11.31 | 9.84 | 11.51 | 9.45 | – | –
2 | COC(=O)NC(C(=O)N1[C@@H]2C[C@@H]2C[C@H]1c1ncc(-c2ccc3c(c2)cc2n3C(c3cc4c(s3)CCC4)Oc3cc(-c4cnc([C@@H]5CCCN5C(=O)[C@@H](NC(=O)OC)C(C)C)[nH]4)cc(F)c3-2)[nH]1)C(C)C (single isomer, unassigned) [Compound 659] | – | 10.84 | – | 11.72 | 9.27 | 11.46 | 9.91
